We go through one compound from patent publication US20130053336A1, “TREATMENT OF CHLAMYDIACEAE INFECTIONS BY MEANS OF BETA-LACTAMS” (priority 2010, published 2013).

SMILES strings stand for the structures. “Also recorded” adds a separate entry of the source.

Assay [1] concerns Chlamydia trachomatis inclusions. Put plainly: Fusion of lysosomes with inclusions (cathepsin D, LysoTracker, confocal microscopy). It counts as cell-based.
The subject of assay [2] is serovar L2 of the Chlamydia trachomatis LGV biovar, serovar D of the trachoma biovar, Chlamydia muridarum. Put plainly: Abnormal inclusions in different host cell types, serovars and Chlamydia species. The note with it: THP-1, RL95-2, HeLa, C. muridarum, penicillin G at 3 hpi. In kind it is cell-based. An excerpt:
In blue in the original figure; Hoechst, in green in the original figure: anti-Chlamydia sp. Image taken at 24 hpi (RL95-2/Chlamydia L2; HeLa/Chlamydia-D; HeLa/C. muridarum) or at 48 hpi (THP-1/Chlamydia-L2; THP-1/Chlamydia-D). Scale: 10 μm.
In order to examine whether the effects of penicillin G on bacterial infectivity depend on the strain or the serovar, ATCC serovar L2 and C. trachomatis serovar D, graciously provided by Dr. de Barbeyrac (University of Bordeaux II, Bordeaux, France) were used. C. muridarum was obtained from Dr. Roger Rank (University of Arkansas, Little Rock, Ark., USA). The bacteria were propagated as a matter of routine in HeLa cells as described above and stored at −80° C. before use (Scidmore, M. A. Curr Protoc Microbiol Chapter 1: Unit 11A 11, 2005). The number of inclusion forming units (IFU) was determined by immunofluorescence, as described above (Verbeke, P. et al. PLoS Pathog 2:e45, 2006).
To examine the effects of penicillin G on cell infection with Chlamydia, the host cells were cultivated up to 70% confluence without antibiotics, and then were infected with C. trachomatis strain L2 or D, or with C. muridarum at 1 IFU. The infections were carried out at 37° C. for 90 minutes with centrifugation, followed by a washing of extracellular bacteria. […]

In the case of `CC1(C)S[C@@H]2[C@H](NC(=O)Cc3ccccc3)C(=O)N2[C@H]1C(=O)O` [Penicillin G, benzylpenicillin], in assay [1] (HeLa, 24 hpi), the “localization of cathepsin D in inclusions” value is given as “the majority of the abnormal bacterial forms contained cathepsin D”. Besides, in assay [1] (RL95-2 cells/serovar L2 or HeLa cells/serovar D), the “cathepsin D in abnormal inclusions of other cell/serovar pairs” value is “also contain cathepsin D”. The “LysoTracker-stained compartments and inclusions” value in assay [1] (confocal videomicroscopy) is given as “compartments stained with LysoTracker probes enter abnormal inclusions”. Moreover, the “generation of abnormal inclusions in other host cells, serovars, species” value in assay [2] was “independent of the type of host cell, serovar, biovar or even species of Chlamydia bacterium used; also recorded: exhibiting abnormal inclusions”.
